For test [1], the target named is T1, Bombesin BB3 (Homo sapiens, UniProt P32247).
T1 construct: expressed in transfected cells; host or cells: Balb 3T3 cells
T1 sequence (P32247 1-399): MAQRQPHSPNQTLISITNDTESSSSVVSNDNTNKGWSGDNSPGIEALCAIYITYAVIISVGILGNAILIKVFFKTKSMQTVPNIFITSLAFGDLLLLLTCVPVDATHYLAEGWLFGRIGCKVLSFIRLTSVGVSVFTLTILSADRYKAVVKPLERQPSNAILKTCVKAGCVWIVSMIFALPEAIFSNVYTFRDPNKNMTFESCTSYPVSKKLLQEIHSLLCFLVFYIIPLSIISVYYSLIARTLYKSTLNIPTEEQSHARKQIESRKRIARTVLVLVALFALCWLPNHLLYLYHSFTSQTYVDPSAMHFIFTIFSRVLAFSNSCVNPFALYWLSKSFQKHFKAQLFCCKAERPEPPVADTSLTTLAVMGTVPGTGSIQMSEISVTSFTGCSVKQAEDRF
Kind of test: Bombesin BB3 radioligand binding. As to conditions: batch 147476; read-out: Concurrent IC50 (reference compound). As for the experimental part:
The effects of juice from Morinda Citrifolia (noni) on metabolic rate were analyzed by analyzing the bombesin response. “TNJ” refers to Morinda citrifolia juice processed according to this invention and commericially available as […] NONI® juice, “Sample #100” is a Noni concentrate and “TNCMP1” refers to Morinda citrifolia evaporative concentrate. The percentage of concentration represents the concentration strength of the particular concentrate tested; that is, the strength of concentration relative to the Morinda citrifolia fruit juice from which the concentrate was obtained.
The following materials and methods were utilized in the Bombesin research.

Test [2] has as its target T1, Bombesin BB3. Particulars: historical value, cited from earlier work.
Test [3] deals with Adrenergic β1 (Homo sapiens, UniProt P08588). As to conditions: ephedrine, from research studies; cited from earlier work.
For test [4], the target named is Adrenergic β2 (Homo sapiens, UniProt P07550). Particulars: ephedrine, from research studies; cited from earlier work.
The target in test [5] is Adrenergic β3 (Homo sapiens, UniProt P13945). As to conditions: ephedrine, from research studies; cited from earlier work.
For test [6], the target named is Somatostatin sst5 (Homo sapiens, UniProt P35346). As to conditions: historical value, Hill coefficient; cited from earlier work.
Test [7] addresses Bombesin BB1 (Homo sapiens, UniProt P28336). Particulars: historical value, Hill coefficient; cited from earlier work.

This is an account of results in US20070154579A1, “Morinda Citrifolia Based Formulation And Methods For Weight Management” (priority 2005, published 2007).

“Also recorded” adds a separate entry of the source. Where two headings read alike, the source gives them in different places. Square brackets hold non-standard residues; d marks the D form. Peptide text beside a SMILES is read from it. Nle = CCCC[C@H](N)C(=O)O; βAla = NCCC(=O)O

Sequence of Adrenergic β2 (P07550 whole entry): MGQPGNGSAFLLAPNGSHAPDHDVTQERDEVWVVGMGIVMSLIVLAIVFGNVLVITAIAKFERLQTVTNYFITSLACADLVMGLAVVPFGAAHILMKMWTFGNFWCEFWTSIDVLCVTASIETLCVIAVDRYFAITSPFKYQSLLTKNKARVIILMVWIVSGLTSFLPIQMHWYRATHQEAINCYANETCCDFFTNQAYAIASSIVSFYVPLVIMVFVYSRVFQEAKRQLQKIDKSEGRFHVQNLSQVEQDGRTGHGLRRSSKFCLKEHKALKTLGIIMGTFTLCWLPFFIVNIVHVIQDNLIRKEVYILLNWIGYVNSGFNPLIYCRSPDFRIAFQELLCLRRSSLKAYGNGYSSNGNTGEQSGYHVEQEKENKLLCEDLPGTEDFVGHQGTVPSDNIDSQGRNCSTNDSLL
Sequence of Adrenergic β3 (P13945 whole entry): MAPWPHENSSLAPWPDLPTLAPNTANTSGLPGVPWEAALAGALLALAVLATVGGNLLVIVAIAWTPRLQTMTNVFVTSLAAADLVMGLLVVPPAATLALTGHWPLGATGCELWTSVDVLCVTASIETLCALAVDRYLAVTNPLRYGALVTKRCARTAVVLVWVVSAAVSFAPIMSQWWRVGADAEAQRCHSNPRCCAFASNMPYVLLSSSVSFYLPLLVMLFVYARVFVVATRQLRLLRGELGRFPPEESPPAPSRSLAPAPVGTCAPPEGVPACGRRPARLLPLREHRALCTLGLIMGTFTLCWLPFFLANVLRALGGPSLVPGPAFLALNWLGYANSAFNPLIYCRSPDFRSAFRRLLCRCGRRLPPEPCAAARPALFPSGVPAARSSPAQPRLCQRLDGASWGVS
Sequence of Adrenergic β1 (P08588 whole entry): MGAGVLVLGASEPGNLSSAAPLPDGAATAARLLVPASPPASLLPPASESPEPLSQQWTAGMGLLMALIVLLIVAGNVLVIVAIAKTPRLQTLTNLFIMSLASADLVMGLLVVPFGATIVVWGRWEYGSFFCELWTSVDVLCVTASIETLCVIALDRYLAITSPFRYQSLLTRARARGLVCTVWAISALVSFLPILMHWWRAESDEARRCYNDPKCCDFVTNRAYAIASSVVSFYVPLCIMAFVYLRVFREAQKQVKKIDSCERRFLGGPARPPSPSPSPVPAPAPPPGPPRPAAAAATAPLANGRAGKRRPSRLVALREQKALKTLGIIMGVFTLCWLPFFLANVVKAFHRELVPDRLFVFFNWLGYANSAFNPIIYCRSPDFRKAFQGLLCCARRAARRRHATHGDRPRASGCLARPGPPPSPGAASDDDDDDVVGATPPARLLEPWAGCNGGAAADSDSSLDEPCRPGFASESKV
Sequence of Somatostatin sst5 (P35346 whole entry): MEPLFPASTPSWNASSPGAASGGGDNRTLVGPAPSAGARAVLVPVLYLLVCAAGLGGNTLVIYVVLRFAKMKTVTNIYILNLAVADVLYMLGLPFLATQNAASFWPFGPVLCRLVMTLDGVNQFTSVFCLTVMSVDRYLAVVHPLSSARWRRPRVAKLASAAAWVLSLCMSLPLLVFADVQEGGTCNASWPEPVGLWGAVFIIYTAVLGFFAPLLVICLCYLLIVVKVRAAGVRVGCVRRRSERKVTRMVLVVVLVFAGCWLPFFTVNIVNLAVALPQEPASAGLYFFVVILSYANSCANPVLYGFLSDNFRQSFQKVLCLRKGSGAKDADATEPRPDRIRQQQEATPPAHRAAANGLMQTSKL
Sequence of Bombesin BB1 (P28336 whole entry): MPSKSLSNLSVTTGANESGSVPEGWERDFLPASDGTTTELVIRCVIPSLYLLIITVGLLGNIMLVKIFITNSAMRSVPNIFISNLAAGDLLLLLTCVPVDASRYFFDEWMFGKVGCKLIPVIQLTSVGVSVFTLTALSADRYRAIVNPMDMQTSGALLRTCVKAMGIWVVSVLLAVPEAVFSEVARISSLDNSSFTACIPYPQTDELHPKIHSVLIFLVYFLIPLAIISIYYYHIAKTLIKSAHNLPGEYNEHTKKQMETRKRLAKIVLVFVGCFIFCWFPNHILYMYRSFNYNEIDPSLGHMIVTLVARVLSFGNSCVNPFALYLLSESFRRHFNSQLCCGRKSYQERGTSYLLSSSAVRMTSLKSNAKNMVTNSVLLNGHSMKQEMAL

By IC50 is commonly meant the point on the concentration scale where inhibition reaches its midpoint. What is called Ki is the equilibrium dissociation constant of an inhibitor or competing ligand from its target. `CCCC[C@H](NC(=O)[C@H](Cc1ccccc1)NC(=O)[C@H](Cc1c[nH]cn1)NC(=O)CCNC(=O)[C@@H](NC(=O)[C@H](C)NC(=O)[C@H](Cc1c[nH]c2ccccc12)NC(=O)[C@H](CCC(N)=O)NC(=O)[C@H](N)Cc1ccccc1)C(C)C)C(N)=O` [(D-Phe^6, β-Ala^11, Phe^13, Nle^14)-BN (6-14)] (H-[dF]QWAV[βAla]HF[Nle]-NH2; N-terminus and C-terminus assumed): the IC50 in test [1] is 5.99 nM; in test [2] (read-out: Historical IC50 (reference compound)), 6.1 nM. Moreover, the “Historical nH (reference compound)” value in test [2] (Hill coefficient) was 0.9. Besides, the Ki in test [2] (read-out: Historical Ki (reference compound)) is 4.1 nM.

With `CN[C@@H](C)[C@H](O)c1ccccc1` [ephedrine], the “adrenergic β-1 response (agonist/antagonist)” value in test [3] was “inhibits; also recorded: antagonist”. Moreover, the “adrenergic β-2 response (agonist/antagonist)” value in test [4] is listed as “inhibits; also recorded: antagonist”. In test [5], the “adrenergic β-3 response (agonist/antagonist)” value is reported as “activating; also recorded: agonist”.

Turning to Somatostatin-14, the “Historical nH (reference compound; no head)” value in test [6] was 0.8.

For Neuromedin B, the “Historical nH (reference compound)” value in test [7] is 0.9.
